In US20230159527A1, “COMPOUNDS AS BCL-2 INHIBITORS” (Fochon Pharmaceuticals, Ltd., priority 2020, published 2023):

Experiments:
Type in all cases: cell-based
RS4;11 cells = experiment: Cell proliferation assay, RS4;11 cells (MTS, 72 h); details: Homo sapiens, RS4;11 cell proliferation
Summary of the method: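 RS4;11 cells (30000/well, RPMI-1640 plus 10% FBS) treated with compounds at 1.5-10000 nM for 72 h at 37° C, 5% CO2. Viability by MTS (2 h), absorbance at 490 nm with 650 nm reference; IC50 from proliferation inhibition.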

Toledo cells = experiment: Cell proliferation assay, Toledo cells (MTS, 72 h); details: Homo sapiens, Toledo cells, MTS, read-out: Toledo IC50
Summary of the method: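 IC50 was derived from 490 nm absorbance after a 2 h MTS step. Before that, compounds at 1.5–10000 nM final (nine points) acted on Toledo cells for 72 h at 37 °C, 5% CO2. Cells were seeded at 30000/well in 10% FBS RPMI-1640 and rested 4 h before dosing.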

DoHH2 cells = experiment: Cell proliferation assay, DoHH2 cells (MTS, 120 h); details: Homo sapiens, DOHH-2
Summary of the method: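 DoHH2 cells in RPMI-1640 with 10% FBS were plated at 5000/well and rested 4 h. They were then exposed to compound at nine final concentrations (10000 to 1.5 nM) for 120 h at 37 °C. Viability was read by MTS (2 h, A490) and IC50 derived by curve fitting.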

Structure (SMILES) | IC50 (RS4;11 cells) | IC50 (Toledo cells) | IC50 (DoHH2 cells)
CC1(O)CCC(CNc2ncc(S(=O)(=O)NC(=O)c3ccc(N4CCC5(CC4)CC(N4CCOC[C@H]4c4ccccc4C4CC4)C5)cc3Oc3cnc4[nH]ccc4c3)cc2[N+](=O)[O-])CC1 (single isomer, unassigned) [Example A-34, (R or S)-2-((1H-pyrrolo[2,3-b]pyridin-5-yl)oxy)-4-(2-(3-(2-cyclopropylphenyl)morpholino)-7-azaspiro[3.5]nonan-7-yl)-N-((6-(((4-hydroxy-4-methylcyclohexyl)methyl)amino)-5-nitropyridin-3-yl)sulfonyl) benzamide] | ≤ 1 nM | 7 nM | ≤ 1 nM
CN1CCN(C2CC3(CCN(c4ccc(C(=O)NS(=O)(=O)c5cnc(NCC6CCOCC6)c([N+](=O)[O-])c5)c(Oc5cnc6[nH]ccc6c5)c4)CC3)C2)[C@H](c2ccccc2C2CC2)C1 (single isomer, unassigned) [Example A-39a, (R or S)-2-((1H-pyrrolo[2,3-b]pyridin-5-yl)oxy)-4-(2-(2-(2-cyclopropyl-phenyl)-4-methylpiperazin-1-yl)-7-azaspiro[3.5]nonan-7-yl)-N-((5-nitro-6-(((tetrahydro-2H-pyran-4-yl)methyl)amino)pyridin-3-yl)sulfonyl) benzamide] | ≤ 1 nM | 1 nM | ≤ 1 nM
Cc1nc(NC[C@H]2CC[C@](C)(O)CC2)c([N+](=O)[O-])cc1S(=O)(=O)NC(=O)c1ccc(N2CCC3(CC2)CC(N2CCC[C@H]2c2ccccc2C(C)C)C3)cc1Oc1cnc2[nH]ccc2c1 (single isomer, unassigned) [Example A-121, 2-((1H-pyrrolo[2,3-b]pyridin-5-yl)oxy)-N-((6-((((1r,4r)-4-hydroxy-4-methylcyclohexyl)methyl)amino)-2-methyl-5-nitropyridin-3-yl)sulfonyl)-4-(2-((R or S)-2-(2-isopropylphenyl)pyrrolidin-1-yl)-7-azaspiro[3.5]nonan-7-yl) benzamide] | ≤ 1 nM | 1 nM | ≤ 1 nM
O=C(NS(=O)(=O)c1cnc(NCC2C3COCC23)c([N+](=O)[O-])c1)c1ccc(N2CCC3(CC2)CC(N2CCC[C@@H]2c2ccccc2C2CC2)C3)cc1Oc1cnc2[nH]ccc2c1 (stereo partly drawn) [Example A-30b, 2-((1H-pyrrolo[2,3-b]pyridin-5-yl)oxy)-N-((6-(((3-oxabicyclo[3.1.0]hexan-6-yl)methyl)amino)-5-nitro-pyridin-3-yl)sulfonyl)-4-(2-((R)-2-(2-cyclopropylphenyl)pyrrolidine-1-yl)-7-azaspiro[3.5]nonan-7-yl)benzamide] | ≤ 1 nM | 1 nM | ≤ 1 nM
CC(C)c1ccccc1C1COCCN1C1CC2(CCN(c3ccc(C(=O)NS(=O)(=O)c4cnc(NCC5(C#N)CCOCC5)c([N+](=O)[O-])c4)c(Oc4cnc5[nH]ccc5c4)c3)CC2)C1 (single isomer, unassigned) [Example A-142, (R or S)-2-((1H-pyrrolo[2,3-b]pyridin-5-yl)oxy)-N-((6-(((4-cyanotetrahydro-2H-pyran-4-yl)methyl)amino)-5-nitro-pyridin-3-yl)sulfonyl)-4-(2-(3-(2-iso-propylphenyl)morpholino)-7-azaspiro [3.5]nonan-7-yl)benzamide] | ≤ 1 nM | 9 nM | ≤ 1 nM
CN1CCN(C2CC3(CCN(c4ccc(C(=O)NS(=O)(=O)c5cnc(NC[C@H]6CC[C@](C)(O)CC6)c([N+](=O)[O-])c5)c(Oc5cnc6[nH]ccc6c5)c4)CC3)C2)[C@H](c2ccccc2C2CC2)C1 (single isomer, unassigned) [Example A-40, 2-((1H-pyrrolo[2,3-b]pyridin-5-yl)oxy)-4-(2-((R or S)-2-(2-cyclopropylphenyl)-4-methylpiperazin-1-yl)-7-azaspiro[3.5]nonan-7-yl)-N-((6-((((1r,4r)-4-hydroxy-4-methylcyclohexyl)methyl)amino)-5-nitropyridin-3-yl)sulfonyl)benzamide] | ≤ 1 nM | 1 nM | ≤ 1 nM
CC(C)c1ccccc1[C@@H]1COCCN1C1CC2(CCN(c3ccc(C(=O)NS(=O)(=O)c4cc5c(c([N+](=O)[O-])c4)O[C@H](CN4CCOCC4)CO5)c(Oc4cnc5[nH]ccc5c4)c3)CC2)C1 (single isomer, unassigned) [Example E-40, 2-((1H-pyrrolo [2,3-b]pyridin-5-yl)oxy)-4-(2-((R or S)-3-(2-isopropylphenyl)morpholino)-7-azaspiro[3.5]nonan-7-yl)-N-(((R)-2-(morpholinomethyl)-8-nitro-2,3-dihydrobenzo [b][1,4]dioxin-6-yl)sulfonyl) benzamide] | ≤ 1 nM | 1 nM | ≤ 1 nM
O=C(NS(=O)(=O)c1cnc(NCC2C3COCC23)c([N+](=O)[O-])c1)c1ccc(N2CCC3(CC2)CC(N2CCC4C[C@]42c2ccccc2C2CC2)C3)cc1Oc1cnc2[nH]ccc2c1 (single isomer, unassigned) [Example A-97b, 2-((1H-pyrrolo[2,3-b]pyridin-5-yl)oxy)-N-((6-(((3-oxabicyclo[3.1.0]hexan-6-yl)methyl)amino)-5-nitro-pyridin-3-yl)sulfonyl)-4-(2-((1R or 1S)-1-(2-cyclopropylphenyl)-2-aza-bicyclo[3.1.0]hexan-2-yl)-7-azaspiro [3.5]nonan-7-yl)benzamide] | ≤ 1 nM | 6 nM | ≤ 1 nM

The next lines start with results.

IC50 (RS4;11 cells) | Structure (SMILES) | IC50 (Toledo cells) | IC50 (DoHH2 cells)
≤ 1 nM | CC(C)c1ccccc1[C@H]1CCCN1C1CC2(CCN(c3ccc(C(=O)NS(=O)(=O)c4cnc(NCC5CCOCC5)c([N+](=O)[O-])c4)c(Oc4cnc5[nH]ccc5c4)c3)CC2)C1 [Example A-5b, (R)-2-((1H-pyrrolo[2,3-b]pyridin-5-yl)oxy)-4-(2-(2-(2-isopropylphenyl)pyrrolidin-1-yl)-7-azaspiro[3.5]nonan-7-yl)-N-((5-nitro-6-(((tetrahydro-2H-pyran-4-yl)methyl)amino)pyridin-3-yl)sulfonyl) benzamide] | 1 nM | ≤ 1 nM
≤ 1 nM | CC(C)c1ccccc1[C@@H]1COCCN1C1CC2(CCN(c3ccc(C(=O)NS(=O)(=O)c4cnc(NC[C@H]5CC[C@](C)(O)CC5)c([N+](=O)[O-])c4)c(Oc4cnc5[nH]ccc5c4)c3)CC2)C1 (single isomer, unassigned) [Example A-56b, 2-((1H-pyrrolo[2,3-b]pyridin-5-yl)oxy)-N-((6-((((1r,4r)-4-hydroxy-4-methylcyclohexyl)methyl)amino)-5-nitropyridin-3-yl)sulfonyl)-4-(2-((R or S)-3-(2-isopropylphenyl)morpho-lino)-7-azaspiro[3.5]nonan-7-yl) benzamide] | 1 nM | ≤ 1 nM
≤ 1 nM | CC(C)c1ccccc1C1COCCN1C1CC2(CCN(c3ccc(C(=O)NS(=O)(=O)c4cnc(NCC5CCOCC5)c([N+](=O)[O-])c4)c(Oc4cnc5[nH]ccc5c4)c3)CC2)C1 (single isomer, unassigned) [Example A-55a, (R or S)-2-((1H-pyrrolo[2,3-b]pyridin-5-yl)oxy)-4-(2-(3-(2-isopropyl-phenyl)morpholino)-7-azaspiro[3.5]nonan-7-yl)-N-((5-nitro-6-(((tetra-hydro-2H-pyran-4-yl)methyl)amino)pyridin-3-yl)sulfonyl)benzamide] | 5 nM | ≤ 1 nM
≤ 1 nM | CC(C)c1ccccc1[C@H]1CCCN1C1CC2(CCN(c3ccc(C(=O)NS(=O)(=O)c4cnc(NCC5C6COCC56)c([N+](=O)[O-])c4)c(Oc4cnc5[nH]ccc5c4)c3)CC2)C1 (stereo partly drawn) [Example A-27b, 2-((1H-pyrrolo[2,3-b]pyridin-5-yl)oxy)-N-((6-(((3-oxabicyclo[3.1.0]hexan-6-yl)methyl)amino)-5-nitro-pyridin-3-yl)sulfonyl)-4-(2-((R)-2-(2-isopropylphenyl)pyrrolidin-1-yl)-7-azaspiro[3.5]nonan-7-yl) benzamide] | 1 nM | ≤ 1 nM
≤ 1 nM | CC(C)c1ccccc1[C@H]1CCCN1C1CC2(CCN(c3ccc(C(=O)NS(=O)(=O)c4cnc(NC[C@H]5CC[C@](C)(O)CC5)c([N+](=O)[O-])c4)c(Oc4cnc5[nH]ccc5c4)c3)CC2)C1 [Example A-7b] | 1 nM | ≤ 1 nM
≤ 1 nM | CC(C)c1ccccc1[C@H]1CCCN1C1CC2(CCN(c3ccc(C(=O)NS(=O)(=O)c4cnc(NCC5(F)CCOCC5)c([N+](=O)[O-])c4)c(Oc4cnc5[nH]ccc5c4)c3)CC2)C1 [Example A-31b, (R)-2-((1H-pyrrolo[2,3-b]pyridin-5-yl)oxy)-N-((6-(((4-fluorotetra-hydro-2H-pyran-4-yl)methyl)amino)-5-nitropyridin-3-yl)sulfonyl)-4-(2-(2-(2-isopropylphenyl)pyrrolidin-1-yl)-7-azaspiro[3.5]nonan-7-yl)benzamide] | 2 nM | ≤ 1 nM
≤ 1 nM | O=C(NS(=O)(=O)c1cnc(NCC2CCOCC2)c([N+](=O)[O-])c1)c1ccc(N2CCC3(CC2)CC(N2CCC[C@@H]2c2ccccc2C2CC2)C3)cc1Oc1cnc2[nH]ccc2c1 [Example A-3b, (R)-2-((1H-pyrrolo[2,3-b]pyridin-5-yl)oxy)-4-(2-(2-(2-cyclopropyl-phenyl)pyrrolidin-1-yl)-7-azaspiro [3.5]nonan-7-yl)-N-((5-nitro-6-(((tetrahydro-2H-pyran-4-yl)methyl)amino)pyridin-3-yl)sulfonyl) benzamide] | 1 nM | ≤ 1 nM
